From PubChem BioAssay AID248 (DTP/NCI, 2004)
Values joined by “and” are separate entries in the source; they are usually repeats but may differ in a detail not shown here. Equal values may be shown once. Toxic doses and inconclusive results are not listed. Cut-off read from the data, not from the text of the source: active = T/C of 150% or more; inactive = T/C below 125%.

Test system: L1210 leukemia ip in BDF1 mice, survival T/C
Experiment: NCI In Vivo Anticancer Drug Screen. Data for tumor model L1210 Leukemia (intraperitoneal) in B6D2F1 (BDF1) mice
Conditions: endpoint: mean survival time, higher = longer survival
How it was run: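 Read-out is survival time, reported as the treated-group measurement over the vehicle-control measurement.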

[1] = dose: 100.0 mg/kg/injection, schedule: Q01DX009 (ip), vehicle: Klucel (hydroxypropylcellulose) (HPC)
[2] = dose: 100.0 mg/kg/injection, schedule: Q04DX003 (ip), vehicle: Klucel (hydroxypropylcellulose) (HPC)
[3] = dose: 200.0 mg/kg/injection, schedule: Q01DX009 (ip), vehicle: Klucel (hydroxypropylcellulose) (HPC)
[4] = dose: 200.0 mg/kg/injection, schedule: Q04DX003 (ip), vehicle: Klucel (hydroxypropylcellulose) (HPC)
[5] = dose: 400.0 mg/kg/injection, schedule: Q01DX009 (ip), vehicle: Klucel (hydroxypropylcellulose) (HPC)
[6] = dose: 400.0 mg/kg/injection, schedule: Q04DX003 (ip), vehicle: Klucel (hydroxypropylcellulose) (HPC)
[7] = dose: 100.0 mg/kg/injection, schedule: Q01DX001 (ip), vehicle: saline
[8] = dose: 200.0 mg/kg/injection, schedule: Q01DX001 (ip), vehicle: saline
[9] = dose: 100.0 mg/kg/injection, schedule: Q01DX009 (ip), vehicle: saline with Tween-80
[10] = dose: 400.0 mg/kg/injection, schedule: Q01DX001 (ip), vehicle: saline
[11] = dose: 50.0 mg/kg/injection, schedule: Q01DX001 (ip), vehicle: saline
[12] = dose: 100.0 mg/kg/injection, schedule: Q01DX009 (ip), vehicle: saline
[13] = dose: 100.0 mg/kg/injection, schedule: Q04DX003 (ip), vehicle: saline
[14] = dose: 200.0 mg/kg/injection, schedule: Q01DX009 (ip), vehicle: saline
[15] = dose: 200.0 mg/kg/injection, schedule: Q04DX003 (ip), vehicle: saline
[16] = dose: 400.0 mg/kg/injection, schedule: Q01DX009 (ip), vehicle: saline
[17] = dose: 400.0 mg/kg/injection, schedule: Q04DX003 (ip), vehicle: saline
[18] = dose: 50.0 mg/kg/injection, schedule: Q01DX009 (ip), vehicle: saline
[19] = dose: 100.0 mg/kg/injection, schedule: Q04DX002 (ip), vehicle: saline
[20] = dose: 200.0 mg/kg/injection, schedule: Q04DX002 (ip), vehicle: saline
[21] = dose: 100.0 mg/kg/injection, schedule: Q01DX001 (ip), vehicle: other
[22] = dose: 200.0 mg/kg/injection, schedule: Q01DX001 (ip), vehicle: other
[23] = dose: 400.0 mg/kg/injection, schedule: Q01DX001 (ip), vehicle: other
[24] = dose: 25.0 mg/kg/injection, schedule: Q04DX003 (ip), vehicle: saline
[25] = dose: 50.0 mg/kg/injection, schedule: Q04DX003 (ip), vehicle: saline
[26] = dose: 100.0 mg/kg/injection, schedule: Q01DX Z (ip), vehicle: methylcellulose (MC)

Measured: T/C

O=C(O)CCc1cnc2ccccc2n1
inactive: [1] 97 % of control | [2] 106 % of control | [3] 95 % of control | [4] 95 % of control | [5] 96 % of control | [6] 92 % of control

NC1CC2C=CCC(C1)C2 (stereo not drawn)
inactive: [7] 95 % of control | [8] 94 % of control

CCC(=S)Nc1ccc(Cl)cc1
inactive: dose: 25.0 mg/kg/injection, schedule: Q01DX009 (ip), vehicle: saline with Tween-80 103 % of control | dose: 50.0 mg/kg/injection, schedule: Q01DX009 (ip), vehicle: saline with Tween-80 105 % of control | [9] 112 % of control | dose: 100.0 mg/kg/injection, schedule: Q04DX003 (ip), vehicle: saline with Tween-80 91 % of control | dose: 200.0 mg/kg/injection, schedule: Q04DX003 (ip), vehicle: saline with Tween-80 110 % of control

C[n+]1csc2ccccc21
inactive: [7] 108 % of control | [8] 103 % of control | [10] 103 % of control

CN1CCN(c2ccc3nnc(Cl)n3n2)CC1
inactive: dose: 50.0 mg/kg/injection, schedule: Q04DX003 (ip), vehicle: saline with Tween-80 97 % of control

NC(=S)NN=C1CCC1
inactive: [11] 98 % of control | [7] 93 % of control and 91 % of control

CCOCC(OC)OC
inactive: [12] 95 % of control | [13] 93 % of control | [14] 97 % of control | [15] 98 % of control | [16] 97 % of control | [17] 107 % of control

CC(C)(O)C1C2OC(=O)C1C1(O)CC3OC34C(=O)OC2C14C (stereo not drawn)
inactive: dose: 12.5 mg/kg/injection, schedule: Q04DX003 (ip), vehicle: Klucel (hydroxypropylcellulose) (HPC) 100 % of control | dose: 25.0 mg/kg/injection, schedule: Q04DX003 (ip), vehicle: Klucel (hydroxypropylcellulose) (HPC) 100 % of control | dose: 50.0 mg/kg/injection, schedule: Q04DX003 (ip), vehicle: Klucel (hydroxypropylcellulose) (HPC) 100 % of control | dose: 75.0 mg/kg/injection, schedule: Q01DX001 (ip), vehicle: other 102 % of control | dose: 150.0 mg/kg/injection, schedule: Q01DX001 (ip), vehicle: other 109 % of control

Cc1ccc(CN(C)C)c(C(O)c2ccccc2)c1 (stereo not drawn)
inactive: [11] 96 % of control | [7] 96 % of control

NC(N)=NC(N)=Nc1ccc([As](=O)(O)O)c(O)c1
inactive: dose: 25.0 mg/kg/injection, schedule: Q01DX009 (ip), vehicle: saline 101 % of control | dose: 40.0 mg/kg/injection, schedule: Q01DX009 (ip), vehicle: Klucel (hydroxypropylcellulose) (HPC) 108 % of control | [18] 98 % of control | dose: 80.0 mg/kg/injection, schedule: Q01DX009 (ip), vehicle: Klucel (hydroxypropylcellulose) (HPC) 101 % of control | [12] 108 % of control | dose: 160.0 mg/kg/injection, schedule: Q01DX009 (ip), vehicle: Klucel (hydroxypropylcellulose) (HPC) 104 % of control

CCCCC(=O)N1CCC(C)CC1
inactive: [19] 98 % of control | [20] 91 % of control

O=C1c2ccccc2-c2c(N=Cc3ccc([N+](=O)[O-])cc3)cccc21
inactive: [2] 102 % of control | [4] 89 % of control | [6] 96 % of control

CC(=O)NC1CCCC(CC2CCCCC2)C1 (stereo not drawn)
inactive: [2] 103 % of control | [4] 93 % of control | [6] 98 % of control

C=C(Br)CN(CC)C(C)=O
inactive: [13] 108 % of control

CC(C)NCC1CCCO1 (stereo not drawn)
inactive: [13] 94 % of control | [15] 94 % of control | [17] 97 % of control

CCOC(=O)CSCn1ncc2ccc([N+](=O)[O-])cc21
inactive: [21] 95 % of control | [22] 95 % of control | [23] 97 % of control

O=C(/C=C/c1ccccc1)C(Cl)C(Cl)c1ccccc1 (stereo not drawn)
inactive: dose: 50.0 mg/kg/injection, schedule: Q01DX009 (sc), vehicle: olive oil, sesame oil, peanut oil 101 % of control | dose: 100.0 mg/kg/injection, schedule: Q01DX009 (sc), vehicle: olive oil, sesame oil, peanut oil 101 % of control | dose: 200.0 mg/kg/injection, schedule: Q01DX009 (sc), vehicle: olive oil, sesame oil, peanut oil 97 % of control

Cc1cc([N+](=O)[O-])cc([N+](=O)[O-])c1OC(=O)c1ccc(N=C(N)N)cc1
inactive: [24] 103 % of control | [18] 102 % of control | [25] 97 % of control | [12] 94 % of control and 91 % of control | [13] 96 % of control and 92 % of control

CCC(Br)C(=O)O (stereo not drawn)
inactive: [18] 96 % of control and 97 % of control | [25] 95 % of control | [7] 92 % of control | [12] 89 % of control and 91 % of control | [19] 101 % of control | [13] 100 % of control | [8] 96 % of control | [20] 105 % of control | [15] 90 % of control

CC1CN(Cc2ccccc2)C(=O)N(c2ccccc2)C1=O (stereo not drawn)
inactive: [26] 92 % of control

CCCCCCCCCC(=O)N/N=C/c1cccs1
inactive: [1] 101 % of control | [3] 101 % of control | [5] 89 % of control

O=C1CCC(=O)N1CC(O)COc1ccc(Cl)cc1 (stereo not drawn)
inactive: [9] 96 % of control | dose: 200.0 mg/kg/injection, schedule: Q01DX009 (ip), vehicle: saline with Tween-80 101 % of control | dose: 400.0 mg/kg/injection, schedule: Q01DX009 (ip), vehicle: saline with Tween-80 104 % of control

CCN1CCC2CN(C)CCN2C1=S (stereo not drawn)
inactive: [24] 98 % of control | [25] 105 % of control | [7] 92 % of control | [13] 94 % of control

CS(=O)(=O)OC1CCCCC1Oc1ccc(Br)cc1 (stereo not drawn)
inactive: dose: 100.0 mg/kg/injection, schedule: Q01DX001 (ip), vehicle: Klucel (hydroxypropylcellulose) (HPC) 106 % of control | [2] 101 % of control | dose: 200.0 mg/kg/injection, schedule: Q01DX001 (ip), vehicle: Klucel (hydroxypropylcellulose) (HPC) 104 % of control | [4] 113 % of control | dose: 400.0 mg/kg/injection, schedule: Q01DX001 (ip), vehicle: Klucel (hydroxypropylcellulose) (HPC) 103 % of control | [6] 98 % of control

C[S+](C)CCCN
inactive: [7] 105 % of control | [12] 94 % of control | [13] 103 % of control | [8] 110 % of control | [14] 109 % of control | [15] 106 % of control | [10] 105 % of control | [16] 106 % of control | [17] 98 % of control

O=C(COc1ccc(Cl)cc1)Nc1ccccc1
inactive: dose: 100.0 mg/kg/injection, schedule: Q04DX002 (ip), vehicle: Klucel (hydroxypropylcellulose) (HPC) 109 % of control | dose: 200.0 mg/kg/injection, schedule: Q04DX002 (ip), vehicle: Klucel (hydroxypropylcellulose) (HPC) 98 % of control | dose: 400.0 mg/kg/injection, schedule: Q04DX002 (ip), vehicle: Klucel (hydroxypropylcellulose) (HPC) 103 % of control

O=c1c2ccccc2[nH]c2ccc(Cl)cc12
inactive: [1] 92 % of control | [2] 96 % of control | [3] 96 % of control | [4] 91 % of control | [5] 86 % of control | [6] 100 % of control

Cc1ccc(N=Nc2cc(C(C)C)c(O)cc2C)cc1
inactive: [21] 97 % of control | [22] 97 % of control | [23] 95 % of control

Cc1ccc(C(C)(N=[N+]=[N-])c2ccccc2)cc1C (stereo not drawn)
inactive: [7] 93 % of control | [8] 96 % of control | [10] 109 % of control

SC1CC[N-]CC1.SC1CC[N-]CC1.[Cl][Pt+2][Cl]
inactive: dose: 25.0 mg/kg/injection, schedule: Q01DX009 (ip), vehicle: water 96 % of control | dose: 50.0 mg/kg/injection, schedule: Q01DX009 (ip), vehicle: water 101 % of control | dose: 100.0 mg/kg/injection, schedule: Q01DX009 (ip), vehicle: water 96 % of control | dose: 100.0 mg/kg/injection, schedule: Q04DX003 (ip), vehicle: water 101 % of control | dose: 200.0 mg/kg/injection, schedule: Q01DX009 (ip), vehicle: water 98 % of control | dose: 200.0 mg/kg/injection, schedule: Q04DX003 (ip), vehicle: water 97 % of control

CSc1nc(N)nc2nc(C)cc(C)c12
inactive: [26] 110 % of control
